# What was measured:
# Test in all cases: PDSP GPCR panel primary binding assays at 10 μM
# Conditions in all cases: primary assay
# [1] = target: T1, cloned human or rodent CNS receptors, channels, and transporters (PDSP panel) (Homo sapiens, UniProt P08172)
# T1 construct: expressed in transfected cells
# T1 sequence (P08172 1-466): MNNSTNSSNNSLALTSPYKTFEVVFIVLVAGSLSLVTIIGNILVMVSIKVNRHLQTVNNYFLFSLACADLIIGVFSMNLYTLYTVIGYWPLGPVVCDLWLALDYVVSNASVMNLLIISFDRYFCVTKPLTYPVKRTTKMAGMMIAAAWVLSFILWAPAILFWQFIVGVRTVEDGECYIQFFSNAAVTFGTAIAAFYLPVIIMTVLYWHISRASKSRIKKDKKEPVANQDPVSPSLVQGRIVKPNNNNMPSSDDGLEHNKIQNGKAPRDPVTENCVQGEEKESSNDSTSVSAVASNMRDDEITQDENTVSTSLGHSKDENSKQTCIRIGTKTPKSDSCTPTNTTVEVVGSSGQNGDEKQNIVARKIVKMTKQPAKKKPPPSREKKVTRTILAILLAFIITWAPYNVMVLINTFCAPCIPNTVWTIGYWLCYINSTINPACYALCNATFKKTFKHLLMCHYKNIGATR
# In short: (§1)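 Secondary binding curves (11 points, triplicate) were run at targets where the 10 μM primary screen, done in quadruplicate, displaced over 50% of radio-labelled standard ligand on average. Primary screening covered 46–47 cloned human or rodent CNS targets; H3, PBR and GABAA were not followed up.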
# [2] = target: T2, cloned human or rodent CNS receptors, channels, and transporters (PDSP panel) (Homo sapiens, UniProt P18089)
# T2 construct: expressed in transfected cells
# T2 sequence (P18089 1-450): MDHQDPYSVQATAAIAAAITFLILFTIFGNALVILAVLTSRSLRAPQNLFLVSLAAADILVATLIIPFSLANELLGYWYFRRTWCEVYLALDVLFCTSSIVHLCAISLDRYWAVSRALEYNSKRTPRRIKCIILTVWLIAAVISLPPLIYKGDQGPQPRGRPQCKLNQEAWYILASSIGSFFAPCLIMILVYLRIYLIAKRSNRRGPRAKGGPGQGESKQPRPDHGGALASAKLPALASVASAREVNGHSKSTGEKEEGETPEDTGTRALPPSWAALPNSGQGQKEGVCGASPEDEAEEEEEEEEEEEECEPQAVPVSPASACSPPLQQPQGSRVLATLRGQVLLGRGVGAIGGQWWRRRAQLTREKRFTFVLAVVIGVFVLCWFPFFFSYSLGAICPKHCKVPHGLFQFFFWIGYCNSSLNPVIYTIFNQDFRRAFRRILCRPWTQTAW
# In short: as §1
# [3] = target: T3, cloned human or rodent CNS receptors, channels, and transporters (PDSP panel) (Homo sapiens, UniProt P35372)
# T3 construct: expressed in transfected cells
# In short: as §1
# [4] = target: T4, cloned human or rodent CNS receptors, channels, and transporters (PDSP panel) (Homo sapiens, UniProt P28566)
# T4 construct: expressed in transfected cells
# In short: as §1
# [5] = target: T5, cloned human or rodent CNS receptors, channels, and transporters (PDSP panel) (Homo sapiens, UniProt P25100)
# T5 construct: expressed in transfected cells
# T5 sequence (P25100 1-572): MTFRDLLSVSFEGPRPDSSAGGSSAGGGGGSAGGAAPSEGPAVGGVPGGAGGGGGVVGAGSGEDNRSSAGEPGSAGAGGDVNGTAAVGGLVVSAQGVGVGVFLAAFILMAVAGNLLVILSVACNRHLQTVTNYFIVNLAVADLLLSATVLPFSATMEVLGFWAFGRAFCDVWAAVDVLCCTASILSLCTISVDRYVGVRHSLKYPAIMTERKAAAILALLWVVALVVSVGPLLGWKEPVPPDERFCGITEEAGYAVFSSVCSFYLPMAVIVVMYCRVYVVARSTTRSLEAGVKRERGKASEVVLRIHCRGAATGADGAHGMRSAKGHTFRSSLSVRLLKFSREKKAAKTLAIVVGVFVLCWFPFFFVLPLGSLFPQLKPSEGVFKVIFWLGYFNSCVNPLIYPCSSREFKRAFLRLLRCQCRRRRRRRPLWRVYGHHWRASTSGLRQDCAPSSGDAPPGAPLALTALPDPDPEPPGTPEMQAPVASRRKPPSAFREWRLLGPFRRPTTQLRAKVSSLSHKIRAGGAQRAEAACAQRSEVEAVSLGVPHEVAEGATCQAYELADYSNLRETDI
# In short: as §1
# [6] = target: T6, cloned human or rodent CNS receptors, channels, and transporters (PDSP panel) (Homo sapiens, UniProt Q01959)
# T6 construct: expressed in transfected cells
# In short: as §1
# [7] = target: T7, cloned human or rodent CNS receptors, channels, and transporters (PDSP panel) (Homo sapiens, UniProt P25021)
# T7 construct: expressed in transfected cells
# In short: as §1
# [8] = target: T8, cloned human or rodent CNS receptors, channels, and transporters (PDSP panel) (Homo sapiens, UniProt P20309)
# T8 construct: expressed in transfected cells
# In short: as §1
# T8 sequence (P20309 whole entry): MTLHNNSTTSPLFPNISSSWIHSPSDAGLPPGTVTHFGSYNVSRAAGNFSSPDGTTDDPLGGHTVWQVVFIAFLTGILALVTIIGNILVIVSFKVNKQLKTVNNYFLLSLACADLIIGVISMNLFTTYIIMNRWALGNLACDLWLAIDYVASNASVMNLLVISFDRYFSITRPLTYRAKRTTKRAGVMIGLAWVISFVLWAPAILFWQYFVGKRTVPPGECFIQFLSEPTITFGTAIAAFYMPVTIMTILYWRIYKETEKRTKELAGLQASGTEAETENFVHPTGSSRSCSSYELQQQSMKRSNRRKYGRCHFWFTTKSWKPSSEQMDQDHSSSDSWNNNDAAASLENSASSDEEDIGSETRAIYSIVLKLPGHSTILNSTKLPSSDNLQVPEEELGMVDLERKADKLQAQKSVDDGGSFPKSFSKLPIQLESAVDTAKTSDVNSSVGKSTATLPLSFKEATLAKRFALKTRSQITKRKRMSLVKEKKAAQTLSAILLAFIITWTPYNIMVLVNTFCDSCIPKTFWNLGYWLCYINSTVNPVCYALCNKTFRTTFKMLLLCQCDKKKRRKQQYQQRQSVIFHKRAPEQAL
# T3 sequence (P35372 whole entry): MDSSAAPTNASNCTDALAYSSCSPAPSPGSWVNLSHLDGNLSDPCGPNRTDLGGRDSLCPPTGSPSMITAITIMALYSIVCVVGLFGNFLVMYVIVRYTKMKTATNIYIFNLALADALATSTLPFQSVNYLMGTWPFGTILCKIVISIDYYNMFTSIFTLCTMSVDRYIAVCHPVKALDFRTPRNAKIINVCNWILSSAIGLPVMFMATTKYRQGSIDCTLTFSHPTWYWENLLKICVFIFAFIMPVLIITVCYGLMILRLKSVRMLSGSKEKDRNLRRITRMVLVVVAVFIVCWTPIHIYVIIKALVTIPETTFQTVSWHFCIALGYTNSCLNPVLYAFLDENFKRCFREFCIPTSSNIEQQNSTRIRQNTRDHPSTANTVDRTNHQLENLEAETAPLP
# T7 sequence (P25021 whole entry): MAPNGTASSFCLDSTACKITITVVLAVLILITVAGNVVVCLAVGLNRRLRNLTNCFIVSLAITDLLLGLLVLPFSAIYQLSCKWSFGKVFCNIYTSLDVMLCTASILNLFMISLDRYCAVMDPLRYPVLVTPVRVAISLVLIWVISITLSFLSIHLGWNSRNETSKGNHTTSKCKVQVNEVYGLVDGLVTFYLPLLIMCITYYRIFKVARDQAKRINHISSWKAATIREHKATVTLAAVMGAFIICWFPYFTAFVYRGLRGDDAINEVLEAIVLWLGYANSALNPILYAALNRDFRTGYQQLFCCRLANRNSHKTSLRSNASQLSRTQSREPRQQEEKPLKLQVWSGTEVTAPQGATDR
# T6 sequence (Q01959 whole entry): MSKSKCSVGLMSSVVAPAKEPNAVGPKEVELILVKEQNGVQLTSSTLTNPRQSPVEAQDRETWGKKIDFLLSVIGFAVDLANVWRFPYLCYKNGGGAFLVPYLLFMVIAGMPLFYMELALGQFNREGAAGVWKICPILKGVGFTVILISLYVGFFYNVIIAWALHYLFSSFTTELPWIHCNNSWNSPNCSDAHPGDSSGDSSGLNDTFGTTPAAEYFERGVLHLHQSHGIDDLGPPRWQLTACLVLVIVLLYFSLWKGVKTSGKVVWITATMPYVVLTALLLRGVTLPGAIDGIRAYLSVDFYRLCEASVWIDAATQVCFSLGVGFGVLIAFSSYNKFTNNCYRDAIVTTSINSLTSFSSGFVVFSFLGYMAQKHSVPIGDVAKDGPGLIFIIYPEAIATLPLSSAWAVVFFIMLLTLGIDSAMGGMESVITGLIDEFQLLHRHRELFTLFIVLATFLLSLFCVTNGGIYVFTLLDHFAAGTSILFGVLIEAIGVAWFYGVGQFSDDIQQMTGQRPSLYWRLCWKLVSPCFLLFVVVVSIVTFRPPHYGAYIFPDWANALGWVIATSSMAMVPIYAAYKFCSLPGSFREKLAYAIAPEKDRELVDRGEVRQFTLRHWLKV
# T4 sequence (P28566 whole entry): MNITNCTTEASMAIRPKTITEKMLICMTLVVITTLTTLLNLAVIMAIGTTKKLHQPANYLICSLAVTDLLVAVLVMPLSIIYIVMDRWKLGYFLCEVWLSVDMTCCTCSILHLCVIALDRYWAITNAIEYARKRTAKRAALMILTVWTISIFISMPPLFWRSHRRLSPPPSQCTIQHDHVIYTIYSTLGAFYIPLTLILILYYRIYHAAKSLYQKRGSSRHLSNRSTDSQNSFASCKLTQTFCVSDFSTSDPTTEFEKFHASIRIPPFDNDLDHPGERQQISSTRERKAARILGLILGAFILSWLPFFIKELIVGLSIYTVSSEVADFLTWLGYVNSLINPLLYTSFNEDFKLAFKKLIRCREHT
smiles,measurement,setting,value
"Cl.NC(=O)c1cnc(N[C@@H]2CCCC[C@@H]2N)nc1Nc1cccc(-n2nccn2)c1 [UNC10302682A, P505-15 (PRT06207 HCl)]",Inhibition 1,"[1]; Receptor M2, 10 μM",-1.69%
same,Inhibition 2,"[1]; Receptor M2, 10 μM",2.24%
same,Inhibition 3,"[1]; Receptor M2, 10 μM",-4.88%
same,Inhibition 4,"[1]; Receptor M2, 10 μM",1.51%
same,Mean %,"[1]; Receptor M2, 10 μM, mean of Inhibition 1-4",-0.71%
same,Inhibition 1,"[2]; Receptor Alpha2B, 10 μM",4.86%
same,Inhibition 2,"[2]; Receptor Alpha2B, 10 μM",6.29%
same,Inhibition 3,"[2]; Receptor Alpha2B, 10 μM",-7.3%
same,Inhibition 4,"[2]; Receptor Alpha2B, 10 μM",-0.22%
same,Mean %,"[2]; Receptor Alpha2B, 10 μM, mean of Inhibition 1-4",0.91%
same,Inhibition 1,"[3]; Receptor MOR, 10 μM",27.09%
same,Inhibition 2,"[3]; Receptor MOR, 10 μM",20.29%
same,Inhibition 3,"[3]; Receptor MOR, 10 μM",17.6%
same,Inhibition 4,"[3]; Receptor MOR, 10 μM",20.19%
same,Mean %,"[3]; Receptor MOR, 10 μM, mean of Inhibition 1-4",21.29%
same,Inhibition 1,"[4]; Receptor 5-HT1E, 10 μM",-23.96%
same,Inhibition 2,"[4]; Receptor 5-HT1E, 10 μM",-26.62%
same,Inhibition 3,"[4]; Receptor 5-HT1E, 10 μM",0%
same,Inhibition 4,"[4]; Receptor 5-HT1E, 10 μM",-50.26%
same,Mean %,"[4]; Receptor 5-HT1E, 10 μM, mean of Inhibition 1-4",-25.21%
same,Inhibition 1,"[5]; Receptor Alpha1D, 10 μM",22.56%
same,Inhibition 2,"[5]; Receptor Alpha1D, 10 μM",13.18%
same,Inhibition 3,"[5]; Receptor Alpha1D, 10 μM",20.43%
same,Inhibition 4,"[5]; Receptor Alpha1D, 10 μM",14.74%
same,Mean %,"[5]; Receptor Alpha1D, 10 μM, mean of Inhibition 1-4",17.73%
same,Inhibition 1,"[6]; Receptor DAT, 10 μM",65.15%
same,Inhibition 2,"[6]; Receptor DAT, 10 μM",70.33%
same,Inhibition 3,"[6]; Receptor DAT, 10 μM",66.98%
same,Inhibition 4,"[6]; Receptor DAT, 10 μM",72.6%
same,Mean %,"[6]; Receptor DAT, 10 μM, mean of Inhibition 1-4",68.77%
same,Inhibition 1,"[7]; Receptor H2, 10 μM",59.21%
same,Inhibition 2,"[7]; Receptor H2, 10 μM",38.77%
same,Inhibition 3,"[7]; Receptor H2, 10 μM",21.91%
same,Inhibition 4,"[7]; Receptor H2, 10 μM",-3.64%
same,Mean %,"[7]; Receptor H2, 10 μM, mean of Inhibition 1-4",29.06%
same,Inhibition 1,"[8]; Receptor M3, 10 μM",28.46%
same,Inhibition 2,"[8]; Receptor M3, 10 μM",2.32%
same,Inhibition 3,"[8]; Receptor M3, 10 μM",15.74%
same,Inhibition 4,"[8]; Receptor M3, 10 μM",10.41%
same,Mean %,"[8]; Receptor M3, 10 μM, mean of Inhibition 1-4",14.23%
"CCC(=O)N1CCC(NC(=O)Nc2ccc(OC(F)(F)F)cc2)CC1 [UNC10302681A, TPPU]",Mean %,"[1]; M2, mean inhibition",-13.3%
same,Inhibition 1,"[1]; M2, replicate 1",-14.72%
same,Inhibition 2,"[1]; M2, replicate 2",-20.61%
same,Inhibition 3,"[1]; M2, replicate 3",-11.27%
same,Inhibition 4,"[1]; M2, replicate 4",-6.61%
same,Mean %,"[2]; Alpha2B, mean inhibition",6.32%
same,Inhibition 1,"[2]; Alpha2B, replicate 1",1.27%
same,Inhibition 2,"[2]; Alpha2B, replicate 2",8.98%
same,Inhibition 3,"[2]; Alpha2B, replicate 3",5.54%
same,Inhibition 4,"[2]; Alpha2B, replicate 4",9.47%
same,Mean %,"[3]; MOR, mean inhibition",7.56%
same,Inhibition 1,"[3]; MOR, replicate 1",7.83%
same,Inhibition 2,"[3]; MOR, replicate 2",3.61%
same,Inhibition 3,"[3]; MOR, replicate 3",10.7%
same,Inhibition 4,"[3]; MOR, replicate 4",8.11%
same,Mean %,"[4]; 5-HT1E, mean inhibition",-4.36%
same,Inhibition 1,"[4]; 5-HT1E, replicate 1",0.45%
same,Inhibition 2,"[4]; 5-HT1E, replicate 2",-10.14%
same,Inhibition 3,"[4]; 5-HT1E, replicate 3",-9.09%
same,Inhibition 4,"[4]; 5-HT1E, replicate 4",1.34%
same,Mean %,"[5]; Alpha1D, mean inhibition",-10.94%
same,Inhibition 1,"[5]; Alpha1D, replicate 1",-5.01%
same,Inhibition 2,"[5]; Alpha1D, replicate 2",-6%
same,Inhibition 3,"[5]; Alpha1D, replicate 3",-20.78%
same,Inhibition 4,"[5]; Alpha1D, replicate 4",-11.97%
same,Mean %,"[6]; DAT, mean inhibition",59.91%
same,Inhibition 1,"[6]; DAT, replicate 1",71.52%
same,Inhibition 2,"[6]; DAT, replicate 2",71.2%
same,Inhibition 3,"[6]; DAT, replicate 3",51.64%
same,Inhibition 4,"[6]; DAT, replicate 4",45.27%
same,Mean %,"[7]; H2, mean inhibition",-16.74%
same,Inhibition 1,"[7]; H2, replicate 1",-3.12%
same,Inhibition 2,"[7]; H2, replicate 2",-11.73%
same,Inhibition 3,"[7]; H2, replicate 3",-19.51%
same,Inhibition 4,"[7]; H2, replicate 4",-32.59%
same,Mean %,"[8]; M3, mean inhibition",3.57%
same,Inhibition 1,"[8]; M3, replicate 1",4.75%
same,Inhibition 2,"[8]; M3, replicate 2",5.92%
same,Inhibition 3,"[8]; M3, replicate 3",13.87%
same,Inhibition 4,"[8]; M3, replicate 4",-10.26%
"CC(=O)N1CCC(NC(=O)NC23CC4CC(CC(C4)C2)C3)CC1 [UNC10302683A, AR9281]",Mean %,"[1]; M2, mean inhibition",-10.23%
same,Inhibition 1,"[1]; M2, replicate 1",-16.19%
same,Inhibition 2,"[1]; M2, replicate 2",-6.36%
same,Inhibition 3,"[1]; M2, replicate 3",-14.96%
same,Inhibition 4,"[1]; M2, replicate 4",-3.41%
same,Mean %,"[2]; Alpha2B, mean inhibition",16.32%
same,Inhibition 1,"[2]; Alpha2B, replicate 1",9.7%
same,Inhibition 2,"[2]; Alpha2B, replicate 2",20.78%
same,Inhibition 3,"[2]; Alpha2B, replicate 3",26.1%
same,Inhibition 4,"[2]; Alpha2B, replicate 4",8.7%
same,Mean %,"[3]; MOR, mean inhibition",5.26%
same,Inhibition 1,"[3]; MOR, replicate 1",2.55%
same,Inhibition 2,"[3]; MOR, replicate 2",12.43%
same,Inhibition 3,"[3]; MOR, replicate 3",4.76%
same,Inhibition 4,"[3]; MOR, replicate 4",1.31%
same,Mean %,"[4]; 5-HT1E, mean inhibition",-2.2%
same,Inhibition 1,"[4]; 5-HT1E, replicate 1",8.11%
same,Inhibition 2,"[4]; 5-HT1E, replicate 2",-12.87%
same,Inhibition 3,"[4]; 5-HT1E, replicate 3",-6.96%
same,Inhibition 4,"[4]; 5-HT1E, replicate 4",2.94%
same,Mean %,"[5]; Alpha1D, mean inhibition",-8.81%
same,Inhibition 1,"[5]; Alpha1D, replicate 1",7.07%
same,Inhibition 2,"[5]; Alpha1D, replicate 2",-12.11%
same,Inhibition 3,"[5]; Alpha1D, replicate 3",-12.82%
same,Inhibition 4,"[5]; Alpha1D, replicate 4",-17.37%
same,Mean %,"[6]; DAT, mean inhibition",71.25%
same,Inhibition 1,"[6]; DAT, replicate 1",78.11%
same,Inhibition 2,"[6]; DAT, replicate 2",65.9%
same,Inhibition 3,"[6]; DAT, replicate 3",74.33%
same,Inhibition 4,"[6]; DAT, replicate 4",66.66%
same,Mean %,"[7]; H2, mean inhibition",-19%
same,Inhibition 1,"[7]; H2, replicate 1",4.92%
same,Inhibition 2,"[7]; H2, replicate 2",-11.17%
same,Inhibition 3,"[7]; H2, replicate 3",-32.29%
same,Inhibition 4,"[7]; H2, replicate 4",-37.45%
same,Mean %,"[8]; M3, mean inhibition",-3.62%
same,Inhibition 1,"[8]; M3, replicate 1",-3%
same,Inhibition 2,"[8]; M3, replicate 2",-3.76%
same,Inhibition 3,"[8]; M3, replicate 3",2.67%
same,Inhibition 4,"[8]; M3, replicate 4",-10.4%
